Holding throughout (assay): minimum inhibitory concentration (MIC), microtiter broth dilution
Common to all, as to type: cell-based
For orientation: Broth dilution looks for growth in wells or tubes with falling amounts of substance.

Assay [1] deals with Aspergillus brasiliensis ATCC 16404. The note with it: Table 2, ppm per product, stock solutions in alcohol, 28° C. for 5 days; for MIC: Aspergillus brasiliensis, ATCC16404, 120 h. Here is the method: (§1) The following compositions were formulated and tested for antimicrobial efficacy. In particular, the compositions were tested for minimum inhibitory concentration (MIC).
(§2) Staphylococcus aureus ATCC 6538, Pseudomonas aeruginosa ATCC 9027, Klebsiella pneumonia ATCC 4352, Burkholderia cepacia ATCC 25416, Enterobacter gergoviae ATCC 33028, Candida albicans ATCC 10231, Aspergillus brasiliensis ATCC 16404, and 2 Penicillium sp. were revived from refrigerated slants and plated on TSA plates for bacteria, SDA plates for yeast, and PDA plates for mold. The broth media used for MIC determination on microtiter plates were TSB for bacteria and SDB for fungi.
(§3) All prepared solutions were considered as products and were tested at the concentration starting at 10,000 ppm per product. Samples were diluted with 2-fold serial dilution into the appropriate broth media on microtiter plates. The bacterial inoculum at concentration of 1×10^6 CFUs/mL and fungal inoculum at concentration of 1×10^5 cells or spores/mL were suspended in regular strength broth and added to the wells in 1:1 ratio to the sample/medium mixtures on microtiter plates. The final concentration of bacteria was 5×10^5 CFUs/mL; the final concentration of fungi was 5×10^4 cells or spores/mL. Bacterial plates were incubated at 35° C. for 2 days and fungal plates were incubated at 28° C. for 5 days before reading results.
(§4) In this example, two compositions made according to the present disclosure were tested for minimum inhibitory concentration (MIC) as described in Example No. 1. In this example, the first sample tested was the same as Sample No. 4 described above in Example No. 1. The second sample (Sample No. 8) was identical to Sample No. 4 except 1,3 propanediol was replaced with 1,5 pentanediol. […]

Assay [2] deals with Candida albicans ATCC 10231. As to conditions: Table 2, ppm per product, stock solutions in alcohol, 28° C. for 5 days; for MIC: Candida albicans, ATCC10231, 120 h. Here is the method:
as §1, §2, §3, §4

The test system of assay [3] is Pseudomonas aeruginosa ATCC 9027. The note with it: Table 2, ppm per product, stock solutions in alcohol, 35° C. for 2 days; for MIC: Pseudomonas aeruginosa, ATCC9027, 48 h, read-out: minimum inhibitory concentration (MIC), Ps. aeruginosa. The protocol: as §1, §2, §3, §4
Assay [4] has as its system Staphylococcus aureus ATCC 6538. The note with it: Table 2, ppm per product, stock solutions in alcohol, 35° C. for 2 days; for MIC: Staphylococcus aureus, ATCC6538, 48 h, read-out: minimum inhibitory concentration (MIC), S. aureus. Here is the method: as §1, §2, §3, §4
Assay [5] relates to Burkholderia cepacia ATCC 25416. The note with it: Table 2, ppm per product, stock solutions in alcohol, 35° C. for 2 days; for MIC: Burkholderia cepacia, ATCC25416, 48 h, read-out: minimum inhibitory concentration (MIC), B. cepacia. Here is the method:
as §1, §2, §3

The test system of assay [6] is Enterobacter gergoviae ATCC 33028. The note with it: Table 2, ppm per product, stock solutions in alcohol, 35° C. for 2 days; for MIC: Pluralibacter gergoviae, ATCC33028, 48 h, read-out: minimum inhibitory concentration (MIC), E. gergoviae. The protocol:
as §1, §2, §3

The subject of assay [7] is Klebsiella pneumonia ATCC 4352. As to conditions: Table 2, ppm per product, stock solutions in alcohol, 35° C. for 2 days; for MIC: Klebsiella pneumoniae, ATCC4352, 48 h, read-out: minimum inhibitory concentration (MIC), K. pneumonia. Here is the method:
as §1, §2, §3

The next assay concerns Penicillium sp. As to conditions: Table 2, ppm per product, stock solutions in alcohol, 28° C. for 5 days; for MIC: Penicillium, 120 h. The protocol: as §1, §2, §3

In brackets after ≈: the same amount, converted by molar mass.

As to `CCCCCCCC(=O)O` [2.5% Octanoic Acid, Octanoic Acid], the MIC in assay [1] is more than 10000 µg/mL; in assay [2], 2500 µg/mL (≈ 17.3 mM); in assay [3], 10000 µg/mL (≈ 69.3 mM); in assay [4], more than 10000 µg/mL; in assay [5] it was 10000 µg/mL (≈ 69.3 mM); in assay [6], more than 10000 µg/mL. Further, the MIC in assay [7] is more than 10000 µg/mL; with Penicillium sp., 7500 µg/mL (≈ 52 mM).

With `COc1cc(C=O)ccc1O` [20% Vanillin, Vanillin], the MIC in assay [1] is 5000 µg/mL (≈ 32.9 mM); in assay [2] it was 2500 µg/mL (≈ 16.4 mM); in assay [3], 5000 µg/mL (≈ 32.9 mM); in assay [4], 10000 µg/mL (≈ 65.7 mM); in assay [5] it was 5000 µg/mL (≈ 32.9 mM); in assay [6], 10000 µg/mL (≈ 65.7 mM). In addition, the MIC in assay [7] amounted to 10000 µg/mL (≈ 65.7 mM); in the assay on Penicillium sp. it was 2500 µg/mL (≈ 16.4 mM).

Turning to `OCCCO` [50% 1,3-Propanediol, 1,3-Propanediol], the “minimum inhibitory concentration (MIC), A. brasiliensis” value in assay [1] is >10,000 ppm. Further, the “minimum inhibitory concentration (MIC), C. albicans” value in assay [2] was 10,000 ppm. Moreover, in assay [3], the “minimum inhibitory concentration (MIC), Ps. aeruginosa” value is listed as 10,000 ppm. In addition, in assay [4], the “minimum inhibitory concentration (MIC), S. aureus” value is recorded as >10,000 ppm. Moreover, the “minimum inhibitory concentration (MIC), B. cepacia” value in assay [5] is listed as 10,000 ppm. Further, in assay [6], the “minimum inhibitory concentration (MIC), E. gergoviae” value is listed as >10,000 ppm. The “minimum inhibitory concentration (MIC), K. pneumonia” value in assay [7] is listed as >10,000 ppm. Moreover, in the assay on Penicillium sp., the “minimum inhibitory concentration (MIC), Penicillium sp.” value was >10,000 ppm.

(Values after US9987209B2, “Multi-functional composition for cosmetic formulations” (Arch Chemicals, Inc., priority 2013, dated 2018).)
